Columns and labels:
[1] = test system: porcine oocytes / embryos; assay: Embryo development to 2-cell and blastocyst stage after IVF in supplemented media (Example 1); assay type: cell-based; settings: for % embryos reaching 2-cell stage of development / % embryos reaching blastocyst stage of development (of those in observed in the 2-cell stage): supplementation 1.0 mM, IVF; for % embryos reaching 2-cell stage of development: control 19; for % embryos reaching blastocyst stage of development (of those in observed in the 2-cell stage): culture to blastocyst stage, control 40
Procedure: (§1) This Example describes an evaluation of the effects of NAC amide, glutathione (GSH) and N-acetylcysteine (NAC) supplementation to incubation and culture media during porcine oocyte maturation, fertilization and embryo culture on various measures of fertilization and embryo development, as well as on the intracellular concentration of GSH.
(§2) Experimental Design: Three trials were conducted, each trial utilizing 30 porcine oocytes per treatment group (90 total oocytes per each of four treatment groups). Oocytes were purchased from Trans Ova Genetics, Sioux City, Iowa. Treatment groups were: 1) Control (no supplemental anti-oxidants); 2) GSH supplementation (1.0 mM); 3) NAC supplementation (1.0 mM); and 4) NAC amide supplementation (1.0 mM).
(§3) In vitro Maturation: Oocytes were maturated for 20 to 24 hours in tissue culture medium 199 with Earle's salts, 0.01 U/mL LH and FSH, 10 ng/mL EGF, antibiotics, and 10% fetal calf serum under mineral oil (Specialty Media, Phillipsburg, N.J.) at 39° C. in an atmosphere of 5% CO2 and then for an additional 20 to 24 h without hormones.
(§4) In vitro Fertilization (IVF) of Oocytes: Cumulus cells by were removed by agitation with 0.1% hyaluronidase, washed and placed in Tris-fertilization medium (113.1 mM NaCl, 3 mM KCl, 7.5 mM CaCl2.2H2O, 20 mM Tris, 11 mM D (+)-glucose, 5 mM sodium pyruvate, 1 mg/mL BSA, 2 mM caffeine) with mineral oil overlay and freeze-thawed spermatozoa were added at a concentration of 2000 spermatozoa/oocyte. The gametes were incubated at 39° C. in an atmosphere of 5% CO2 for approximately 6 hours.
In vitro Culture: Putative zygotes were washed and incubated in NCSU-23 culture medium (108.73 mM NaCl, 4.78 mM KCl, 1.19 mM KH2PO4, 1.19 mM MgSO4.7H2O, 5.5 mM glucose, 1 mM glutamine, 7 mM taurine 5 mM hypotaurine, 25.07 mM NaHCO3, 1.7 mM CaCl2.2H2O, 75 μg/mL Penicillin G, 50 μg/mL Streptomycin, 4 mg/mL BSA, pH 7.4) with mineral oil overlay at 39° C. in an atmosphere of 5% CO2 for 48 hours. After 48 hours, embryos that had undergone the first cell division were placed in fresh NCSU 23 culture media in the same manner as described above until blastocyst formation, 144 hours post-IVF.
The remaining zygotes were cultured through the blastocyst stage of development ([…]) in their respective media and their development and viability progress was recorded (Table 2). NAC amide supplementation of the culture medium enhanced the development of zygotes to the 2-cell stage and further aided the subsequent final percentage of those embryos reaching the 2-cell stage that continued development onto the blastocyst stage (the endpoint of in vitro analysis).

porcine putative zygotes = assay: In vitro fertilization parameter evaluation by nuclear staining of putative zygotes; assay type: cell-based; settings: 12 hours after IVF; n=4 zygotes per group; preliminary, subjective
Procedure: as §2, §4
In vitro Fertilization Parameter Evaluation: Fertilization was analyzed 12 hours after IVF by fixing the oocytes on a microscope slide with 25% (v:v) acetic acid in ethanol at room temperature for 48 hours. Oocytes were stained with 1% orcein in 45% (v:v) acetic acid and examined using a phase-contrast microscope at 400× magnification.
Fertilization parameters were subjectively examined by nuclear staining samples (n=4) of putative zygotes from each of the treatment groups 12 hours after IVF was complete (Illustration 1, * indicates pronucleus). In the preliminary analysis, only a small number of zygotes were subjected to staining, since the intent of the studies described herein was to assess the number of zygotes that continued development to the 2-cell and blastocyst stages. This analysis was simply to see if any obvious anomalies were occurring.

porcine oocytes = assay: Glutathione assay: intracellular GSH concentration per oocyte after supplementation of maturation medium; assay type: cell-based; settings: supplementation 1.0 mM; for GSH concentration/oocyte: porcine oocytes, control 3.19
Procedure: as §1, §2, §3
Glutathione Assay: Oocytes were washed in PBS, frozen, and ruptured using a blunt glass rod in phosphoric acid. The assay was performed as described previously (B. D. Whitaker and J. W. Knight, 2004, Theriogenology, 62:311-322) and the amount of GSH was determined using a standard curve of concentration GSH versus rate of change in absorbency.

[2] = cell-free system; cited from earlier work
[3] = test system: porcine oocytes / embryos; assay: Embryo development after intracytoplasmic sperm injection (ICSI) with NAC amide supplementation (Example 4); assay type: cell-based; settings: of 24 oocytes
Text: (§5) This Example investigates the effects of NAC amide supplementation to culture media during porcine oocyte maturation, fertilization, and embryo culture on intracellular concentrations of GSH after oocyte maturation, IVF parameters, success of intracytoplasmic sperm injection (ICSI), and embryo development following ICSI and pronuclear microinjection.
(§6) All chemicals, unless otherwise specified, were obtained from Sigma Chemical Company (St. Louis, Mo.) and were of embryo grade quality. Dr. Glenn Goldstein and associates provided the NAC amide. Oocytes (BoMed, Madison, Wis.) were maturated for 20 to 24 h in tissue culture medium 199 supplemented with Earle's salts, 0.01 U/mL LH and FSH, antibiotics, and 10% fetal calf serum under mineral oil (Specialty Media, Phillipsburg, N.J.) at 39° C. in an atmosphere of 5% CO2 and then for an additional 20 to 24 h without hormones.
Cumulus cells were removed by agitation with 0.1% hyaluronidase, washed and placed in microdrops of NCSU-23 culture medium (108.73 mM NaCl, 4.78 mM KCl, 1.19 mM KH2PO4, 1.19 mM MgSO4.7H2O, 5.5 mM glucose, 1 mM glutamine, 7 mM taurine 5 mM hypotaurine, 25.07 mM NaHCO3, 1.7 mM CaCl2.2H2O, 75 μg/mL Penicillin G, 50 μg/mL Streptomycin, 4 mg/mL BSA, pH 7.4) with mineral oil overlay at 39° C. after centrifugation at 15000×g. Frozen-thawed sperm were then placed in an adjacent microdrop. […]

[4] = test system: mammalian red blood cells (RBCs); settings: cited from earlier work
[5] = test system: porcine oocytes / embryos; assay: Embryo development after IVF with NAC amide supplementation (Example 4); assay type: cell-based; settings: of 70 oocytes
Text: as §5, §6
as §4, with “Cumulus” for “In vitro Fertilization (IVF) of Oocytes: Cumulus”, “cells” for “cells by”, “D(+)-glucose,” for “D (+)-glucose,”, “frozen-thawed” for “freeze-thawed”, “h. […]” for “hours.”

| Compound | % embryos reaching 2-cell stage of development [1] | % embryos reaching blastocyst stage of development (of those in observed in the 2-cell stage) [1] | changes on fertilization events (nuclear staining) (porcine putative zygotes) | GSH concentration/oocyte (porcine oocytes) | intracellular GSH concentration, statistical comparison with control (porcine oocytes; P<0.05) | % of embryos developing to the 2-cell and blastocyst stages, statistical comparison ([1]; 2-cell P<0.05, blastocyst P<0.10) | reaction with oxidized glutathione (GSSG) [2] | greater increase in intracellular GSH compared with supplementation of GSH per se (porcine oocytes) | greater intracellular GSH concentration compared with NAC supplementation (porcine oocytes) | increase in intracellular GSH concentration compared with control (porcine oocytes) | intracellular GSH concentration, statistical comparison with GSH (porcine oocytes; P<0.05) | # of Embryos reaching blastocyst stage of development ([3]; control 2 of 25) | # of Embryos reaching 2-cell stage of development ([3]; control 5 of 25) | hemoglobin oxidation ([4]; RBCs) | tert.-butylhydroxyperoxide (BuOOH)-induced intracellular oxidation ([4]; RBCs) | restoration of thiol-depleted RBCs ([4]; externally applied, compared with NAC) | # of Embryos reaching blastocyst stage of development ([5]; control 6 of 67) | # of Embryos reaching 2-cell stage of development ([5]; control 10 of 67) |
| --- | --- | --- | --- | --- | --- | --- | --- | --- | --- | --- | --- | --- | --- | --- | --- | --- | --- | --- |
| N[C@@H](CCC(=O)N[C@@H](CS)C(=O)NCC(=O)O)C(=O)O [GSH, glutathione] | 25% | 40% | did not have any noticeable changes | 4.18 pmol | – | – | – | – | – | – | – | – | – | – | – | – | – | – |
| CC(=O)N[C@@H](CS)C(=O)O [NAC, N-acetylcysteine] | 30% | 55% | did not have any noticeable changes | 6.00 pmol | significantly (P<0.05) higher than control | – | – | – | – | – | – | – | – | – | – | – | – | – |
| N-acetylcysteine amide [NAC amide] | 45% | 85% | did not have any noticeable changes | 7.03 pmol | significantly (P<0.05) higher than control | significantly greater % of embryos | react with oxidized glutathione (GSSG) to generate reduced glutathione (GSH) | 40% | 15% | 2.2 fold | significantly (P<0.05) higher than GSH | 5 | 12 | protected hemoglobin from oxidation | inhibit | significantly greater than that found using NAC | 12 | 22 |

Source: patent US20100137676A1, “N-ACETYLCYSTEINE AMIDE (NAC AMIDE) FOR TREATMENT OF OXIDATIVE STRESS ASSOCIATED WITH INFERTILITY” (priority 2005, published 2010)
